Source: a compilation of properties of binary mixtures (doi:10.1016/j.jct.2015.07.015)

Experiment: xn = mol fraction of the nth substance listed
Settings: 101 kPa

C=CC[n+]1ccn(C)c1.[Cl-] + O
viscosity [mPa·s]
Settings | 298.15 K | 303.15 K | 313.15 K | 323.15 K | 328.15 K | 333.15 K | 343.15 K | 353.15 K | 363.15 K | 373.15 K
x2 = 0.045 | 1884 | 1137 | – | 232 | 167 | 124 | 73 | 46.2 | 31.2 | 22.21
x2 = 0.091 | 1416 | 891 | 392 | 196 | 144 | – | 64.9 | 41.8 | – | 20.53
x2 = 0.126 | 1090 | 691 | – | 164 | 123 | 92 | 56.3 | – | – | –
x2 = 0.152 | 887 | 580 | 270 | 147 | 108 | 84 | 51.7 | 34.3 | 24 | 17.6
x2 = 0.193 | – | 459 | 221 | 121 | 91 | 71 | 45 | 30.4 | 21.6 | –
x2 = 0.267 | – | 293 | 151 | 86 | 67.1 | 53.1 | 35 | – | 17.7 | –
x2 = 0.335 | 259 | – | 101 | – | 48.6 | 39.3 | 26.8 | 19.2 | 14.26 | 10.98

CC(=O)[O-].CC[n+]1ccn(C)c1 + O
viscosity [mPa·s]
Settings | 298.15 K | 303.15 K | 313.15 K | 323.15 K | 333.15 K | 343.15 K | 353.15 K | 363.15 K | 373.15 K
x2 = 0.072 | 124 | 92 | 55.4 | 35.4 | 24.3 | 17.63 | 13.21 | – | 8.19
x2 = 0.102 | 119 | 89 | 53.6 | 34.5 | 23.8 | 17.23 | – | – | 8.07
x2 = 0.132 | 112 | – | 51.1 | – | 22.9 | 16.73 | – | – | 7.86
x2 = 0.188 | 100 | 76 | – | 30.6 | – | 15.69 | – | 9.32 | –
x2 = 0.266 | – | 66 | 41.8 | 27.7 | – | 14.44 | 11 | 8.67 | 6.98
x2 = 0.355 | 75 | 58 | 36.9 | 24.8 | 17.7 | – | – | 8 | 6.47
